Assays:
[1] = HPLC purity of bendamustine HCl after sterilization; assay type: physicochemical
Experimental: (§1) 100 mg each of bendamustine HCl was weighed into a 20 mL tubing vial, a 20 mL amber vial, and a 20 mL clear vial. Rubber stoppers were inserted and aluminum caps crimped on. The vials were passed through a gamma irradiation line and received doses in the range of 29.3 kGy to about 32.3 kGy. Purity and sterility testing was then performed.
as §1, with “an electron beam” for “a gamma”, “a dose” for “doses in the range”, “of” for “of 29.3 kGy to”, “30” for “32.3”
To each 10 mg of bendamustine HCl, sterilized according to the methods described above, was added 10 mL N-methyl-2-pyrrolidone (NMP). A reference standard of bendamustine HCl was prepared in NMP having a concentration of 1 mg/mL. HPLC was performed according to conventional methods.

[2] = heating; background statement; cited from earlier work

Cl.Cn1c(CCCC(=O)O)nc2cc(N(CCCl)CCCl)ccc21 [bendamustine HCl, Bendamustine hydrochloride]
HPLC purity (% area) ([1]; after E-beam irradiation, about 30 kGy, 100 mg solid in amber vial): 99.70 % area | HPLC purity (% area) ([1]; after E-beam irradiation, about 30 kGy, 100 mg solid in clear vial): 99.70 % area | HPLC purity (% area) ([1]; after gamma irradiation, 29.3 kGy to about 32.3 kGy, 100 mg solid in amber vial): 99.70 % area | HPLC purity (% area) ([1]; after gamma irradiation, 29.3 kGy to about 32.3 kGy, 100 mg solid in clear vial): 99.64 % area | Temperature at which the solid chars when heated [2]: 160 °C
